In this assay the target is T1, Lysozyme (Gallus gallus, UniProt P00698).
T1 construct: gene LYZ
In words: X-ray crystallography of soaked crystals ([…] data sets), ligand occupancy vs soak time; Kd^cryst from fitted Omax. Format: binding.

What is called Kd is the constant that tells how readily two partners part at equilibrium. High values mean a looser complex, low ones a tighter complex.

T1 sequence (P00698 19-147): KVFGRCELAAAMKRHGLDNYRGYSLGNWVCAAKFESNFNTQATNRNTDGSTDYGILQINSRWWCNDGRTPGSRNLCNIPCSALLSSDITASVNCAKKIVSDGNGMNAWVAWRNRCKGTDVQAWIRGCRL

`CC(=O)N[C@H]1C(O)O[C@H](CO)[C@@H](O)[C@@H]1O` (stereo partly shown) [NAG, N-acetyl glucosamine] had a Kd of 5.4 mM.

Source of the values: publication PMC4079544, “A Linear Relationship between Crystal Size and Fragment Binding Time Observed Crystallographically: Implications for Fragment Library Screening Using Acoustic Droplet Ejection” (PLoS ONE, 2014).
